Source: patent publication US9102669B2, “Substituted piperidinyl-pyridazinyl derivatives useful as SCD 1 inhibitors” (Janssen Pharmaceutica NV, priority 2011, dated 2015)
Where “and” joins values, the source holds several entries; their conditions need not be identical. Equal entries are not always repeated.

Assays:
SCD1 [1] = molecular target: SCD1 (Rattus norvegicus (Rat), UniProt P07308); assay: SCD1 enzymatic assay in rat liver microsomes (RLM); format: biochemical; conditions: rat liver microsomes; for inhibition at 1 µM / % Inh.@ 1 μM: 1 μM test compound; for inhibition at 1 µM: read-out: % Inh.@ 1 μM
Chain of SCD1 (Rattus norvegicus (Rat), UniProt P07308) (P07308 whole entry): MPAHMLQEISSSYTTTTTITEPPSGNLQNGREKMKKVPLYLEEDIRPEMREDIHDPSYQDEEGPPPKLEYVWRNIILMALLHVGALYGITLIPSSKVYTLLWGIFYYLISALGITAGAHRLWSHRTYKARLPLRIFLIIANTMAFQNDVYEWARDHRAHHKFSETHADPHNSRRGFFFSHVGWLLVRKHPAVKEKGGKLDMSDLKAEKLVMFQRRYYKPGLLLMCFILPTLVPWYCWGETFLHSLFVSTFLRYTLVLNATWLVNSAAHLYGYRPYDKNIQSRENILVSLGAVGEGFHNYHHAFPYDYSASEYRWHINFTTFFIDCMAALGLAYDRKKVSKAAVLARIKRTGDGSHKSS
Experimental: Step 1: Preparation of Rat Liver Microsome (RLM):
Sprague Dawley rats from Charles River (200-225 g) underwent 2-cycle of fast-re-feeding (24-hour fast followed by 24-hour feeding with fat-free high carbohydrate diet, Reseach Diet, D00042802). The livers were removed and homogenized 1:4 (w/v) with pre-chilled, homogenizing buffer (10 mM Tris-HCl, 0.25 M sucrose, 1 mM EDTA, pH 7.4, supplemented with protease inhibitor cocktail). The homogenate was spun at 12,000×g for 15 min at 4° C. The supernatant was then re-centrifuged at 100,000×g for 60 min at 4° C. The pellet was re-suspended in 2 ml pre-chilled […] potassium phosphate buffer, pH 7.2, 10 mM EDTA at a concentration of 20 mg/ml. The resulting rat liver microsome (RLM) preparation was stored at −80° C.
Step 2: SCD1 Enzymatic Assay in RLM:
The SCD1 enzymatic assay was done in a volume of 50 μL using 10 μg of RLM (prepared as described above) in a 96-well polypropylene plate (enzyme reaction buffer contains 0.1 M K-Phosphate Buffer, 10 mM ATP, 6 mM MgCl2. 1 mM CoA, 1 mM β-NADH, 1.6 mM L-glutathione, 20 μM Stearoyl-CoA). Stearoyl-[9,10-^3H]-CoA (ARC-0390, 1 mCi/mL, 60 Ci/mmol,) was added at a final concentration of 2 μCi/mL. Test compound was then added to the reaction mixture at the selected concentration. After incubation at room temperature for 2 hours, 5 μL 1 N HCl was added to stop the reaction, followed by addition of 25 μL of 10% charcoal. The reaction mixture was then transferred to 96-well Multiscreen plate (Millipore, Cat#MSFCN6B50). […] The measured cpm values were fitted with Sigmoidal dose-response curve fit with Graphpad Prism.

SCD1 [2] = molecular target: SCD1 (Homo sapiens (Human), UniProt O00767); assay: SCD1 13C-palmitic acid assay in A431 cells; format: cell-based; conditions: read-out: A431 cells 13C-PA IC50
Chain of SCD1 (Homo sapiens (Human), UniProt O00767) (O00767 whole entry): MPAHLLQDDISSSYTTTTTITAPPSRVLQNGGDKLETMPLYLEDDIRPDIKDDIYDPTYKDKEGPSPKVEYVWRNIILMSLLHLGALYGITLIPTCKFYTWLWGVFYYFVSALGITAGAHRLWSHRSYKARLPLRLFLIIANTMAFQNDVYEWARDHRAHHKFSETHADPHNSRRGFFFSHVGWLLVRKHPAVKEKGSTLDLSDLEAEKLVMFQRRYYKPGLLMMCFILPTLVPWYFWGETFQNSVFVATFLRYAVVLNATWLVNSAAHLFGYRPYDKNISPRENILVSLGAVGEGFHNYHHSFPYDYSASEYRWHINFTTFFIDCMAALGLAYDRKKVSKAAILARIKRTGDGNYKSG
Experimental: Human epithelial carcinoma A431 cells were seeded at 100,000 cells/well in complete growth medium (DMEM, Cellgro#10-013-CM, 4.5 g/L glucose, 10% FBS) in the presence of 0.05 mg/mL human insulin (Hannas Pharmaceutical Supply Co Inc, Humanlin 100 U/ml, 4 mg/ml) in 96-well tissue culture plate. 24 hr later, the cells were washed extensively with Assay Buffer (DMEM, Cellgro#10-013-CM, 4.5 g/L glucose, supplemented with 0.05 mg/mL Human Insulin and 0.1% Fatty Acid Free BSA). […] The cells were then returned to the tissue culture incubator (37° C. and 5% CO2) for 4 hrs. At the end of incubation, the cells were washed three times with 200 μL/well Hanks buffer (HBSS) and then stored at −20° C. until extraction.
For fatty acid extraction, after thawing out the plates, 40 μL of 1N KOH (containing 5 μM of internal standard 7,7,8,8-D4 palmitate) was added to each well and cell plates were incubated at 37° C. for 30 minutes. […] Acetonitrile (100 μL) was then added to extract fatty acids, followed by centrifugation at 3000 rpm for 10 minutes. 75 μL of extract was then transferred to a new glass vial in a 96-well cluster plate. 5 μL was injected for LC/MS analysis for detection of ^13C-palmitic acid and ^13C-palmitoleic acid. Formation of product ^13C-palmitoleic acid was determined as an index of SCD1 activity.
LC/MS analysis was performed as following. An Agilent 1100 Liquid Chromatographic System (Palo Alto, Calif.) consisting of a binary pump, a degasser and an autosampler was used. Separation of free fatty acids was performed on a Zorbax SB-C8 column (2.1×50 mm, particle size=3.5 μm). An isocratic elution was carried out with 10 mM triethylamine acetate in water: acetonitrile (3:7) at a flow rate of 0.3 mL/min. The column temperature was set at 30° C. and the sample injection volume was 5 μL. The LC run cycle was 4 min. A Micromass triple-quadrupole Quattro Micro mass […] (Waters, Beverly, Mass.) was interfaced with the LC system through a Z-spray electrospray ion source and was operated in the negative ion mode. Nitrogen was used as nebulizing gas, desolvation gas and cone curtain gas and argon was chosen as collision gas. The triple quadrupole MS source parameters were set as follows: capillary voltage, 3200V; cone voltage, 25V; exctractor 2V; source temperature, 120° C.; desolvation temperature, 300° C.; cone gas flow, 50 L/h; and desolvation gas flow, 700 L/h. […] MassLynx software version 4.0 was used for system control and data processing. The signal of U-^13C-palmitoleic acid was normalized to an internal standard.

| inhibition at 1 µM (SCD1 [1]) [%] | IC50 (SCD1 [1]) | IC50 (SCD1 [2]) | Structure (SMILES) | % Inh.@ 1 μM (SCD1 [1]) [%] |
| --- | --- | --- | --- | --- |
| 100 | 21 nM | 23 nM | Cc1cnn(-c2ccc(N3CCC(N4CCc5ccc(F)cc54)CC3)nn2)c1 [Compound #16, 6-fluoro-1-(1-(6-(4-methyl-1H-pyrazol-1-yl)pyridazin-3-yl)piperidin-4-yl)indoline] |  |
| 94 | 17 nM | 40 nM and 19 nM | CCn1cc(-c2ccc(N3CCC(N4CCc5ccc(F)cc54)CC3)nn2)cn1 [Compound #21, 1-(1-(6-(1-ethyl-1H-pyrazol-4-yl)pyridazin-3-yl)piperidin-4-yl)-6-fluoroindoline] |  |
| 97 | 7 nM | 2 nM | Cc1csc(-c2ccc(N3CCC(N4CCc5ccc(F)cc54)CC3)nn2)n1 [Compound #29, 2-(6-(4-(6-fluoroindolin-1-yl)piperidin-1-yl)pyridazin-3-yl)-4-methylthiazole] |  |
| 95 | 6 nM and 19 nM | 2 nM and 3 nM | Cc1ccc(-c2ccc(N3CCC(N4CCc5ccc(F)cc54)CC3)nn2)cn1 [Compound #30, 6-fluoro-1-(1-(6-(6-methylpyridin-3-yl)pyridazin-3-yl)piperidin-4-yl)indoline] | 99 |
| 97 | 31 nM | 4 nM and 19 nM | Cc1cnc(-c2ccc(N3CCC(N4CCc5ccc(F)cc54)CC3)nn2)s1 [Compound #31, 2-(6-(4-(6-fluoroindolin-1-yl)piperidin-1-yl)pyridazin-3-yl)-5-methylthiazole] |  |
| 92 | 79 nM | 3 nM and 18 nM | Cc1ccc(-c2ccc(N3CCC(N4CCc5ccc(F)cc54)CC3)nn2)cc1 [Compound #36, 6-fluoro-1-(1-(6-(p-tolyl)pyridazin-3-yl)piperidin-4-yl)indoline] |  |
| 98 | 12 nM | 4 nM | COc1ccc(-c2ccc(N3CCC(N4CCc5ccc(F)cc54)CC3)nn2)cn1 [Compound #37, 6-fluoro-1-(1-(6-(6-methoxypyridin-3-yl)pyridazin-3-yl)piperidin-4-yl)indoline] |  |
| 71 | 35 nM | 6 nM | CNC(=O)c1ccc(-c2ccc(N3CCC(N4CCc5ccc(F)cc54)CC3)nn2)cn1 [Compound #42, 5-(6-(4-(6-fluoroindolin-1-yl)piperidin-1-yl)pyridazin-3-yl)-N-methylpicolinamide] |  |
| 90 | 20 nM | 11 nM | OCCc1cnn(-c2ccc(N3CCC(N4CCc5ccc(F)cc54)CC3)nn2)c1 [Compound #43, 2-(1-(6-(4-(6-fluoroindolin-1-yl)piperidin-1-yl)pyridazin-3-yl)-1H-pyrazol-4-yl)ethanol] |  |
| 59 | 777 nM |  | Fc1ccc(-c2ccc(N3CCC(N4CCc5ccc(F)cc54)CC3)nn2)cc1 [Compound #53, 6-fluoro-1-(1-(6-(4-fluorophenyl)pyridazin-3-yl)piperidin-4-yl)indoline] |  |
| 57 | 678 nM |  | Cn1cc(-c2ccc(N3CCC(N4CCc5c(F)cccc54)CC3)nn2)cn1 [Compound #66, 4-fluoro-1-(1-(6-(1-methyl-1H-pyrazol-4-yl)pyridazin-3-yl)piperidin-4-yl)indoline] |  |
| 27 |  |  | CC(=O)NNC(=O)c1ccc(N2CCC(c3noc4ccc(F)cc34)CC2)nn1 [Compound I2, N′-acetyl-6-(4-(5-fluorobenzo[d]isoxazol-3-yl)piperidin-1-yl)pyridazine-3-carbohydrazide] |  |
| 45 | > 1000 nM |  | Cc1ccc(-c2ccc(N3CCC(c4noc5ccc(F)cc45)CC3)nn2)cc1 [compound 32, 5-fluoro-3-(1-(6-(p-tolyl)pyridazin-3-yl)piperidin-4-yl)benzo[d]isoxazole] |  |
| 38 | > 1000 nM |  | Cn1cc(-c2ccc(N3CCC(n4c(C(F)(F)F)nc5ccccc54)CC3)nn2)cn1 [compound 41, 1-(1-(6-(1-methyl-1H-pyrazol-4-yl)pyridazin-3-yl)piperidin-4-yl)-2-(trifiuoromethyl)-1H-benzo[d]imidazole] |  |
| 60 | 939 nM |  | Cn1cc(-c2ccc(N3CCC(n4nnc5ccccc54)CC3)nn2)cn1 [compound 48, 1-(1-(6-(1-methyl-1H-pyrazol-4-yl)pyridazin-3-yl)piperidin-4-yl)-1H-benzo[d][1,2,3]triazoie] |  |
| 8 | > 1000 nM |  | CC(C)(C)OC(=O)c1ccc(-c2ccc(N3CCC(N4CCc5ccc(F)cc54)CC3)nn2)cc1 [compound 55, tert-butyl 4-(6-(4-(6-fluoroindolin-1-yl)piperidin-1-yl)pyridazin-3-yl)benzoate] |  |
| 28 | > 1000 nM |  | NC(=O)c1ccc(-c2ccc(N3CCC(N4CCc5ccc(F)cc54)CC3)nn2)cc1 [compound 56, 4-(6-(4-(6-fluoroindolin-1-yl)piperidin-1-yl)pyridazin-3-yl)benzamide] |  |
| 32 | > 1000 nM |  | Cn1cc(-c2ccc(N3CCC(N4CCc5c(Cl)cccc54)CC3)nn2)cn1 [compound 67, 4-chloro-1-(1-(6-(1-methyl-1H-pyrazol-4-yl)pyridazin-3-yl)piperidin-4-yl)indoline] |  |
| 34 |  |  | Cn1cc(-c2ccc(N3CCC(N4CCc5c(Cl)cc(Cl)cc54)CC3)nn2)cn1 [compound 68, 4,6-dichloro-1-(1-(6-(1-methyl-1H-pyrazol-4-yl)pyridazin-3-yl)piperidin-4-yl)indoline] |  |
| 45 |  |  | Fc1ccc2onc(C3CCN(c4ccc(-n5cccn5)nn4)CC3)c2c1 [compound 87, 3-(1-(6-(1H-pyrazol-1-yl)pyridazin-3-yl)piperidin-4-yl)-5-fluorobenzo[d]isoxazole] |  |
| 29 |  |  | Cc1cn(-c2ccc(N3CCC(N4CCCc5ccccc54)CC3)nn2)cn1 [compound 90, 1-(1-(6-(4-methyl-1H-imidazol-1-yl)pyridazin-3-yl)piperidin-4-yl)-1,2,3,4-tetrahydroquinoline] |  |
| 41 |  |  | Cc1nccn1-c1ccc(N2CCC(c3noc4ccc(F)cc34)CC2)nn1 [compound 93, 5-fluoro-3-(1-(6-(2-methyl-1H-imidazol-1-yl)pyridazin-3-yl)piperidin-4-yl)benzo[d]isoxazole] |  |

| Structure (SMILES) | inhibition at 1 µM (SCD1 [1]) [%] | IC50 (SCD1 [1]) | IC50 (SCD1 [2]) | % Inh.@ 1 μM (SCD1 [1]) [%] |
| --- | --- | --- | --- | --- |
| OCc1cn(-c2ccc(N3CCC(N4CCc5ccc(F)cc54)CC3)nn2)cn1 [Compound #15] | 101 | 11 nM | 3 nM |  |
| CN(C)c1ccc(-c2ccc(N3CCC(N4CCc5ccc(F)cc54)CC3)nn2)cn1 [Compound #44, 5-(6-(4-(6-fluoroindolin-1-yl)piperidin-1-yl)pyridazin-3-yl)-N,N-dimethylpyridin-2-amine] | 92 | 20 nM and 14 nM | 32 nM and 28 nM | 97 |
| Cn1cc(-c2ccc(N3CCC(n4ccc5ccc(F)cc54)CC3)nn2)cn1 [Compound #63, 6-fluoro-1-(1-(6-(1-methyl-1H-pyrazol-4-yl)pyridazin-3-yl)piperidin-4-yl)-1H-indole] | 99 |  |  |  |
